# In patent US20100226857A1, “TUMOR CELL DIFFERENTIATION AGENTS AS CHEMICAL INHIBITORS AND TREATMENTS FOR INTRACELLULAR PARASITES” (priority 2006, published 2010):
# Like-named read-outs stand apart in the source and are kept apart here.
# What was measured:
# T. gondii tachyzoites [1] = experiment: T. gondii tachyzoite proliferation assay in HS68 cells (tachyzoite count); format: cell-based, Toxoplasma gondii; details: for times tachyzoites are more sensitive than human tumor cells: tachyzoite IC50 vs literature tumor cell concentrations
# Protocol: Parasite propagation—The RH strain of Toxoplasma gondii was grown in BM bovine macrophage cells or HS68 human foreskin fibroblast cells obtained from the American Type Culture Collection (Rockville, Md.). HS68 cells were grown in RPMI 1640 medium (Mediatech, Inc., Herndon, Va.) plus 10% fetal bovine serum (Atlanta Biologicals, Lawrenceville, Ga.), 1 mM sodium pyruvate and 100 U/ml each of penicillin and streptomycin. Parasites were harvested from infected cultures of HS68 cells growing in T-75 cm^2 flasks. After removing the culture medium, the cells were scraped into 5 ml of phosphate-buffered saline and a cell lysate obtained by passing through a 26-gauge needle. To purify the parasites, the cell lysate was filtered through a 3 micron (micrometer) filter.
# (§1) Proliferation assays: HS68 cells were replica plated in 48-well dishes, and grown to confluence prior to infection with 5-10×10^4 freshly purified T. gondii tachyzoites/well. After 2 hours, the media and non-infective tachyzoites were removed, and replaced with RPMI medium containing 2% fetal bovine serum plus 1 mM sodium pyruvate, penicillin (100 U), streptomycin (100 U) and test agent or a vehicle control. The proliferation assays were terminated 48-72 hours post-infection when the untreated cells were heavily infected. All of the culture media were removed from the wells, and the tachyzoites in the media were fixed by dilution (1:1) into phosphate-buffered saline containing 10% formaldehyde. The tachyzoites were collected by brief centrifugation (30 seconds, […]) at room temperature using a tabletop microfuge. The tachyzoites were resuspended in 100 ul of phosphate-buffered saline, and duplicate aliquots were counted using a hemocytometer. […] The monolayer of HS68 cells in each well was fixed and stained for 5 minutes using a solution of 50% ethanol-5% formaldehyde-0.1% crystal violet in 0.85% sodium chloride, then rinsed with water, and air-dried. The minimum inhibitory concentration (MIC) of compounds that suppressed Toxoplasma-induced lysis of the HS68 cells was determined visually by counting the number of plaques/well in the monolayer.
# MCF-7 cells [2] = experiment: Comet assay for DNA damage; format: cell-based, human
# Protocol: Comet Analysis: The comet assay is a single-cell gel electrophoresis method for measuring DNA damage. MCF-7 cells (2×10^5/35-mm^2 dish) were treated 12 h after plating. Twenty-four hours later, the cells were harvested and resuspended (1.5×10^5 cells/ml) in ice-cold PBS. The PBS cell suspension (50 ul) was mixed with 500 ul of 42° C. low-melting point agarose, spread evenly (75 ul) onto a Comet Slide (Trevigen, Gaithersburg, Md.), and allowed to harden. The slides were then immersed in ice-cold lysis solution (Trevigen) for 45 mm to lyse the cells and then transferred to freshly prepared alkali solution (300 mM NaOH and 1 mM EDTA, […]) for 45 mM. at room temperature to denature the DNA. Electrophoresis was performed at 4° C. Slides were air-dried overnight at room temperature and then stained with SYBR Green (Trevigen). Comets were visualized by fluorescence microscopy at 630× magnification with the aid of an antifade solution. Comet images were analyzed using the LAI Automated Comet Assay Analysis System (Loats Associates, Inc., Westminster, Md.). DNA damage was quantified in 80 comets per treatment/experiment using the tail moment [Tail moment [(% DNA) (distance traveled)]].
# [3] = system: MCF-7 human breast cancer cells; experiment: ESR free radical (ROS) measurement in MCF-7 cell suspensions with DMPO; format: cell-based; details: for ESR signal indicative of ROS production in MCF-7 cells: 10 uM NSC3852, 8 uM NSC2039; for relative peak heights of the ESR signals (mean±range, n=2): 1×10^6 MCF-7 cells, 5 min at 37° C.
# Protocol: Free Radical Measurements: All ESR measurements were conducted using a Bruker EMIR spectrometer (Bruker Instruments Inc., Billerica, Mass.) and a flat-cell assembly. Hyperfine couplings were measured (to 0.1 G) directly from magnetic field separation using potassium tetraperoxochromate (K3CrO8) and 1,1-diphenyl-2-picrylhydrazyl as reference standards. The relative radical concentration was estimated by multiplying half of the peak height by (ΔHpp)^2, where (ΔHpp) represents peak-to-peak width. The Acquisit program was used for data acquisitions and analyses. MCF-7 cells (2.0×10^6 cells/60-mm^2 dish) were harvested 48 h after plating by trypsinization and collected at room temperature by centnfugation (225 g, 5 min). Cells were washed once with ice-cold PBS and resuspended in ice-cold PBS at 2×10^6 cells/ml. Radical production was measured in the presence of the spin trap 5,5-dimethyl-1-pyrroline-N-oxide (DMPO; Aldrich Chemical Co., Milwaukee, Wis.). DMPO (200 mM) and 1×10^6 cells test agents were mixed in 1.0 ml of PBS, incubated at 37° C. for 5 mm, and then transferred to a flat cell for ESR measurements.
# T. gondii = experiment: Plaque suppression / protection of HS68 monolayer from T. gondii; format: cell-based, Toxoplasma gondii; details: for MIC IC50 (ratio MIC/IC50): MIC plaque suppression relative to IC50 tachyzoite count; for MIC: Toxoplasma gondii, read-out: MIC (uM) Plaque Suppression; for state of HS68 monolayer of T. gondii-infected treated cells: 1 uM, 48 hours
# Protocol: as §1
# T. gondii tachyzoites [4] = experiment: In vivo acute toxoplasmosis in mice (survival); set-up: species or system Toxoplasma gondii; CD-1 mice; details: for control of acute toxoplasmosis in mice: TSA 0.5 mg/kg, SAHA 50 mg/kg, scriptaid 3.5 mg/kg i.p. once daily, valproic acid 300 mg/kg oral daily; for median survival: mice
# Protocol: Specifically, female CD-1 mice (20 g) were inoculated in the sub-scapular region with 5,000 T. gondii tachyzoites on Day 0. […] The dose of scriptaid was not optimized in this experiment. In this study, valproic acid was administered orally in the drinking water at a dose of 300 mg/kg. Survival was monitored twice daily beginning on day 9 of the study. The results are depicted graphically in FIG. 5A and in tabular form in FIG. 5B.
# Cryptosporidium parvum = experiment: Real-time PCR analysis of C. parvum oocyst production in infected HCT-8 cells; format: cell-based; details: 48 hours, apicidin 70 ng/ml, SAHA 2.5 ug/ml; for % Reduction in oocysts numbers: vs 0.1% DMSO
# Protocol: Monolayer cultures of HCT-8 human colon cells growing in 24-well plastic tissue culture dishes were infected with C. parvum oocysts for 3 hours. […] The cells were harvested, and DNA was extracted. The DNA was analyzed for the production of C. parvum oocysts from the infected cells using real-time PCR and DNA primers that specifically amplify the C. parvum oocysts wall protein (COWP).
# MCF-7 cells [5] = experiment: Cell death ELISA (apoptosis); format: cell-based, human
# Protocol: Cell Death Enzyme-Linked Immunosorbent Assay: We quantified cytoplasmic nucleosomes using the Cell Death Detection […] kit (Roche Molecular Biochemicals, Indianapolis, Ind.) in MCF-7 cells plated in triplicate into 96-well plates. The cytoplasmic fractions from attached cells in each well were assayed in duplicate for the presence of nucleosomes according to the directions from the suppliers. The apoptotic response was measured by the nucleosome-enrichment fraction calculated as the ratio of the absorbance (405 nm) of drug-treated cultures/solvent-exposed cultures.
# T. gondii tachyzoites [6] = experiment: NSC3852 inhibition of T. gondii tachyzoite proliferation in HS68 cells (Example 4); format: cell-based; details: Toxoplasma gondii, approximately 60 hours, n=5 experiments, read-out: median IC50 for inhibition of T. gondii tachyzoite proliferation
# Protocol: Briefly, T. gondii tachyzoites (1×10^5) were introduced into individual wells in a 48-well culture dish containing confluent monolayers of host cells (normal human skin fibroblasts HS68). Approximately 60 hours later, the tachyzoites were harvested from the medium and counted. […] Data points wee the average of triplicate determinations at every concentration of NSC3852 used.
# MCF-7 cells [7] = experiment: Colorimetric determination of reduced and oxidized glutathione; format: cell-based, human; details: after 1 h, P<0.05
# Protocol: Colorimetric Determination of Reduced and Oxidized Glutathione: The GSH and GSSG concentrations in MCF-7 cells (3×10^6 cell/60 mm^2 dish) were measured enzymatically using the GSHI GSSG-412 kit (Oxis Research, Portland, Oreg.). GSSG and GSH standards were prepared in 5% metaphosphoric acid. Cell samples were prepared in 5% metaphosphoric acid with or without 1-methyl-2-vinyl-pyridium trifluoromethane sulfonate, a GSH-specific scavenger. Ellman's reagent (5′,5-dithiobis-2-nitrobenzoic acid) reacts with GSH to form a product with an absorption maximum at 412 nm. GSSG was determined using glutathione reductase to reduce GSSG to GSH followed by reaction with Ellman's reagent.
# [8] = system: HS68 human foreskin fibroblast cells; experiment: Toxicity to HS68 host cells; format: cell-based; details: for toxicity to HS68 cells at highest concentration tested: 10 uM
# human tumor cell lines = details: cited from earlier work
# [9] = RH strain T. gondii in HS68 cells, 48-well plate, mean+/-SEM
# [10] = Toxoplasma gondii, RH strain T. gondii in HS68 cells, 48-well plate, 48-72 hours post-infection, mean+/-SEM, read-out: IC50 (uM) Tachyzoite Count
# [11] = RH strain T. gondii in HS68 cells, 48-well plate, 48-72 hours post-infection, mean+/-SEM, read-out: IC50 (uM) Tachyzoite Count
compound,measurement,setting,value
NC(=O)c1cccnc1 [nicotinamide],activity against T. gondii in in vitro assays,T. gondii tachyzoites [1],minimal activity
"Oc1cccc2cccnc12 [NSC2039, 8-quinolinol]",DNA damage (comet tail moment),MCF-7 cells [2],did not induce DNA damage
same,ESR signal indicative of ROS production in MCF-7 cells,[3],no signal was produced
"CCCC(CCC)C(=O)[O-].[Na+] [Valproic acid, sodium valproate]",MIC IC50 (ratio MIC/IC50),T. gondii,5.2
same,MIC,T. gondii; [9],8300 ± 1000 µM
same,IC50,T. gondii tachyzoites [1]; [10],1600 ± 1120 µM
same,IC50,"T. gondii tachyzoites [1]; Toxoplasma gondii, RH strain in HS68 cells, read-out: IC50 range of carboxylate inhibitors",1000 to 5000 µM
same,control of acute toxoplasmosis in mice,T. gondii tachyzoites [4],ineffective
same,therapeutic effect against RH T. gondii in mice,"T. gondii tachyzoites [4]; doses up to 600 mg/kg/day, oral or intraperitoneal",not therapeutic
same,median survival,T. gondii tachyzoites [4]; i.p. 400 mg/kg and 600 mg/kg divided into 2 daily doses,10 days
same,median survival,T. gondii tachyzoites [4]; oral dose of 600 mg/kg,12 days
"CCCC(=O)[O-].[Na+] [Sodium butyrate, sodium butyrate]",MIC IC50 (ratio MIC/IC50),T. gondii,4.2
same,MIC,T. gondii,4200 ± 800 µM
same,IC50,"T. gondii tachyzoites [1]; Toxoplasma gondii, Hs68, read-out: IC50 (uM) Tachyzoite Count",1000 ± 455 µM
same,IC50,"T. gondii tachyzoites [1]; Toxoplasma gondii, Hs68, read-out: IC50 range of carboxylate inhibitors",1000 to 5000 µM
4-phenylbutyrate,MIC IC50 (ratio MIC/IC50),T. gondii,3.1
same,MIC (uM) Plaque Suppression,T. gondii; [9],"16,700 ± 3300 uM"
same,IC50,T. gondii tachyzoites [1]; [11],5350 ± 2750 µM
CCC(=O)CCCCC[C@@H]1NC(=O)[C@H]2CCCCN2C(=O)[C@H]([C@@H](C)CC)NC(=O)[C@H](Cc2cn(OC)c3ccccc23)NC1=O [Apicidin],number of oocysts/ml (mean ± S.D. n = 6),Cryptosporidium parvum,517.7 ± 417.1 oocysts/ml
same,% Reduction in oocysts numbers,Cryptosporidium parvum,92.2%
"O=C(CCCCCCC(=O)NO)NO [SBHA, suberic bishydroxamic acid]",MIC IC50 (ratio MIC/IC50),T. gondii,58.7
same,MIC (uM) Plaque Suppression,T. gondii; [9],12.5 ± 5 µM
same,IC50,T. gondii tachyzoites [1]; [11],0.213 ± 0.11 µM
same,ESR signal indicative of ROS production in MCF-7 cells,[3],rapid and robust ESR signals
"O=Nc1ccc(O)c2ncccc12 [NSC3852, 5-nitroso-8-quinolinol]",DNA damage (comet tail moment),MCF-7 cells [2],maximal at 24 h
same,time of peak apoptosis,MCF-7 cells [5],48 h
same,IC50,T. gondii tachyzoites [6],0.079 µM
same,decrease in [GSH]/[GSSG] compared with control cells,MCF-7 cells [7],20%
same,"relative peak heights of the ESR signals (mean±range, n=2)",[3]; 2 uM,70±4 mm
same,ESR signal indicative of ROS production in MCF-7 cells,[3],"indicative of the DMPO-OH adduct, was observed"
same,"relative peak heights of the ESR signals (mean±range, n=2)",[3]; 10 uM,109±3 mm
"CC(/C=C/C(=O)NO)=C\[C@@H](C)C(=O)c1ccc(N(C)C)cc1 [TSA, trichostatin A]",MIC IC50 (ratio MIC/IC50),T. gondii,4.3
same,MIC (uM) Plaque Suppression,T. gondii; [9],0.175 ± 0.025 µM
same,concentration at which apoptotic HS68 cells were evident,[8],500 nM
same,IC50,T. gondii tachyzoites [1]; [11],0.041 ± 0.001 µM
same,concentration that eliminated tachyzoites and plaque formation,T. gondii tachyzoites [1]; T. gondii infected HS68 cells,200 nM
same,concentrations giving dramatic decrease in tachyzoite numbers,T. gondii tachyzoites [1]; p<0.05,> 100 nM
same,control of acute toxoplasmosis in mice,T. gondii tachyzoites [4],showed in vivo efficacy
same,"relative peak heights of the ESR signals (mean±range, n=2)",[3]; 200 nM,99±1 mm
O=C(CCCCCN1C(=O)c2cccc3cccc(c23)C1=O)NO [Scriptaid],state of HS68 monolayer of T. gondii-infected treated cells,T. gondii,completely intact
same,MIC IC50 (ratio MIC/IC50),T. gondii,5.8
same,MIC,T. gondii; [9],0.225 ± 0.025 µM
same,IC50 levels reducing tumor cell proliferation in vitro,human tumor cell lines,1 to 20 µg/mL
same,IC50,human tumor cell lines; read-out: IC50 levels reducing tumor cell proliferation in vitro,3 to 60 µM
same,toxicity to HS68 cells at highest concentration tested,[8],non-toxic
same,IC50,T. gondii tachyzoites [1]; [10],0.039 ± 0.011 µM
same,IC50,"T. gondii tachyzoites [1]; Toxoplasma gondii, RH strain in HS68 cells, average of independent experiments, read-out: IC50 T. gondii tachyzoites",0.037 µM
same,low concentrations stimulating tachyzoite numbers,"T. gondii tachyzoites [1]; biphasic response, FIG. 4",1 to 10 nM
same,times tachyzoites are more sensitive than human tumor cells,T. gondii tachyzoites [1],80-1500 times
same,control of acute toxoplasmosis in mice,T. gondii tachyzoites [4],showed in vivo efficacy
same,daily dose that can extend the life of mice infected with RH T. gondii,T. gondii tachyzoites [4]; for 14 days,about 3.5 mg/kg
"O=C(CCCCCCC(=O)Nc1ccccc1)NO [SAHA, suberoylanilide hydroxamic acid]",state of HS68 monolayer of T. gondii-infected treated cells,T. gondii,completely intact
same,MIC,T. gondii; [9],0.4 ± 0.1 µM
same,concentration reducing tumor cell numbers and inducing tumor cell apoptosis,human tumor cell lines; variety of human tumor cell lines in tissue culture,1 to 20 µM
same,toxicity to HS68 cells at highest concentration tested,[8],no discernable toxicity
same,times tachyzoites are more sensitive than human tumor cells,T. gondii tachyzoites [1],10-200 times
same,control of acute toxoplasmosis in mice,T. gondii tachyzoites [4],showed in vivo efficacy
same,number of oocysts/ml (mean ± S.D. n = 6),Cryptosporidium parvum,252.8 ± 280 oocysts/ml
same,% Reduction in oocysts numbers,Cryptosporidium parvum,96.2%
